From ChEMBL document CHEMBL4507307 (2021)

How the values were obtained:
D(3) dopamine receptor = D(3) dopamine receptor (Homo sapiens, UniProt P35462); assay: GPCRScan assay: inhibition of D3; set-up: radioligand conc. used [nm] 0.5 – 1.8, parental cells HEKT
[1] = molecular target: Alpha-1D adrenergic receptor (Homo sapiens, UniProt P25100); assay: GPCRScan assay: inhibition of Alpha1D; set-up: radioligand conc. used [nm] 0.3 – 1.0, parental cells stable
[2] = molecular target: Beta-3 adrenergic receptor (Homo sapiens, UniProt P13945); details: Compound concentration 10.0 uM
[3] = molecular target: Tyrosine-protein kinase ABL1 (Homo sapiens) (UniProt P00519); assay: ABL1 Kinase activity screen
[4] = molecular target: Dual specificity tyrosine-phosphorylation-regulated kinase 4 (Homo sapiens) (UniProt Q9NR20); assay: DYRK4 Kinase activity screen
[5] = molecular target: Tyrosine-protein kinase JAK1 (Homo sapiens) (UniProt P23458); assay: JAK1 Kinase activity screen; details: Compound concentration 0.1 uM
[6] = molecular target: Glycogen synthase kinase-3 beta (Homo sapiens) (UniProt P49841); assay: GSK3B (GSK3 beta) Kinase activity screen
[7] = molecular target: Casein kinase I isoform alpha (Homo sapiens) (UniProt P48729); assay: CSNK1A1 (CK1 alpha 1) Kinase activity screen
[8] = molecular target: Mitogen-activated protein kinase 8 (Homo sapiens) (UniProt P45983); assay: MAPK8 (JNK1) Kinase activity screen
[9] = molecular target: Serine/threonine-protein kinase mTOR (Homo sapiens) (UniProt P42345); assay: FRAP1 (mTOR) Kinase activity screen
[10] = molecular target: Protein kinase C alpha type (Homo sapiens) (UniProt P17252); assay: PRKCA (PKC alpha) Kinase activity screen
[11] = molecular target: Proto-oncogene tyrosine-protein kinase receptor Ret (Homo sapiens) (UniProt P07949); assay: RET Kinase activity screen
[12] = molecular target: Dual specificity mitogen-activated protein kinase kinase 1 (Homo sapiens) (UniProt Q02750); assay: MAP2K1 (MEK1) Kinase activity screen
[13] = molecular target: Ribosomal protein S6 kinase beta-1 (Homo sapiens) (UniProt P23443); assay: RPS6KB1 (p70S6K) Kinase activity screen
[14] = molecular target: Angiopoietin-1 receptor (Homo sapiens) (UniProt Q02763); assay: TEK (Tie2) Kinase activity screen
[15] = molecular target: Serine/threonine-protein kinase Chk1 (Homo sapiens) (UniProt O14757); assay: CHEK1 (CHK1) Kinase activity screen
[16] = molecular target: Ephrin type-A receptor 5 (Homo sapiens) (UniProt P54756); assay: EPHA5 Kinase activity screen

Dual specificity mitogen-activated protein kinase kinase 1 (Homo sapiens), sequence (Q02750 whole entry): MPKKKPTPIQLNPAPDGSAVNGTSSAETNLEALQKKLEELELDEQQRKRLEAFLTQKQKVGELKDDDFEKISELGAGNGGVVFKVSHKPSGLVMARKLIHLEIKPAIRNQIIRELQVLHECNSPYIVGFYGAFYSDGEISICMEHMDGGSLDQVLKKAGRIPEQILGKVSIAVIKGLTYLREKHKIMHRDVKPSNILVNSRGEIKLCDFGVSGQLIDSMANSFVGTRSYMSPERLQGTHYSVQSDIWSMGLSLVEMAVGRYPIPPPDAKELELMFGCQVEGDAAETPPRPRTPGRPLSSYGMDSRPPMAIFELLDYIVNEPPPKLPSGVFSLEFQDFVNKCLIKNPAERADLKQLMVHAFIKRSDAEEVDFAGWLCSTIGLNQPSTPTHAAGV
Tyrosine-protein kinase ABL1 (Homo sapiens), sequence (P00519 whole entry): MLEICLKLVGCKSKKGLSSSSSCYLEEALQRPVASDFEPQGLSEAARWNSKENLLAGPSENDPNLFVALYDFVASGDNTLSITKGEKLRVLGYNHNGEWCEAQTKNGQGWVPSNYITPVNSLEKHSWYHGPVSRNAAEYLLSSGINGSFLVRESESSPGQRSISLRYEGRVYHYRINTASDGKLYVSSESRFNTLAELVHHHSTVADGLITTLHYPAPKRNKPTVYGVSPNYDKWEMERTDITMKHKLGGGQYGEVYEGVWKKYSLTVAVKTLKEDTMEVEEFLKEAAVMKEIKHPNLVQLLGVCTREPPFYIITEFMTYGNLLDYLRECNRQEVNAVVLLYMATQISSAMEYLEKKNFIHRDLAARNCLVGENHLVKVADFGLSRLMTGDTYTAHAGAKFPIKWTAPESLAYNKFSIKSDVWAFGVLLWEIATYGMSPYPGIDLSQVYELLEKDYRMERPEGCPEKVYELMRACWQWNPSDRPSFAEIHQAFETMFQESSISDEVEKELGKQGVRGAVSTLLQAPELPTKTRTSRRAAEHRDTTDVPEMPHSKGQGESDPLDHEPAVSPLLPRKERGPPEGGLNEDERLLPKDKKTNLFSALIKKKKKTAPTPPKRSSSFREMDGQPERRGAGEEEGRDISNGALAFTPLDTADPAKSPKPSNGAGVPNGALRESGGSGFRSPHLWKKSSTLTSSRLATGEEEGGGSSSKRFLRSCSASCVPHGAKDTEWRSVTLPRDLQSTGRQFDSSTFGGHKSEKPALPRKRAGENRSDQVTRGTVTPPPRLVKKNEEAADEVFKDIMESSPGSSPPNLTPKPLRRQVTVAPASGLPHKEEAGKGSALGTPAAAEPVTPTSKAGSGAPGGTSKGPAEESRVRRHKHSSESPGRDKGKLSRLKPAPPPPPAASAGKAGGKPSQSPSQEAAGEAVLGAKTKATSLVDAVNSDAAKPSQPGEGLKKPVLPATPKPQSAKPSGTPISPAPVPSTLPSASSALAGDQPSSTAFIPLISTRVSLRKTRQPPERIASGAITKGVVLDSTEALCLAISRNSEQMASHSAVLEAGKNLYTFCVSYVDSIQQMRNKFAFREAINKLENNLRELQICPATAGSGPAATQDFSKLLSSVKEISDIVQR
Mitogen-activated protein kinase 8 (Homo sapiens), sequence (P45983 whole entry): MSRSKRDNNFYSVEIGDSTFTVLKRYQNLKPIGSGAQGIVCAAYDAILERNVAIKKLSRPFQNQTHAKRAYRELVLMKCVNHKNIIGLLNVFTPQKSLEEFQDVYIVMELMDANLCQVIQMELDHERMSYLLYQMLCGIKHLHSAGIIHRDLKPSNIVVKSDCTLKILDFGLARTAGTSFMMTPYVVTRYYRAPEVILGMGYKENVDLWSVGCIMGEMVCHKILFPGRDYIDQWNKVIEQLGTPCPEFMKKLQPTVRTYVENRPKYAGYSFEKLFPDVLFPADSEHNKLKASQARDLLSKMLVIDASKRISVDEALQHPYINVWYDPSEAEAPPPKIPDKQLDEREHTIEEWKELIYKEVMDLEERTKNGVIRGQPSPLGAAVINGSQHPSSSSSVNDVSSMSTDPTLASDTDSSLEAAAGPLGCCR
Proto-oncogene tyrosine-protein kinase receptor Ret (Homo sapiens), sequence (P07949 whole entry): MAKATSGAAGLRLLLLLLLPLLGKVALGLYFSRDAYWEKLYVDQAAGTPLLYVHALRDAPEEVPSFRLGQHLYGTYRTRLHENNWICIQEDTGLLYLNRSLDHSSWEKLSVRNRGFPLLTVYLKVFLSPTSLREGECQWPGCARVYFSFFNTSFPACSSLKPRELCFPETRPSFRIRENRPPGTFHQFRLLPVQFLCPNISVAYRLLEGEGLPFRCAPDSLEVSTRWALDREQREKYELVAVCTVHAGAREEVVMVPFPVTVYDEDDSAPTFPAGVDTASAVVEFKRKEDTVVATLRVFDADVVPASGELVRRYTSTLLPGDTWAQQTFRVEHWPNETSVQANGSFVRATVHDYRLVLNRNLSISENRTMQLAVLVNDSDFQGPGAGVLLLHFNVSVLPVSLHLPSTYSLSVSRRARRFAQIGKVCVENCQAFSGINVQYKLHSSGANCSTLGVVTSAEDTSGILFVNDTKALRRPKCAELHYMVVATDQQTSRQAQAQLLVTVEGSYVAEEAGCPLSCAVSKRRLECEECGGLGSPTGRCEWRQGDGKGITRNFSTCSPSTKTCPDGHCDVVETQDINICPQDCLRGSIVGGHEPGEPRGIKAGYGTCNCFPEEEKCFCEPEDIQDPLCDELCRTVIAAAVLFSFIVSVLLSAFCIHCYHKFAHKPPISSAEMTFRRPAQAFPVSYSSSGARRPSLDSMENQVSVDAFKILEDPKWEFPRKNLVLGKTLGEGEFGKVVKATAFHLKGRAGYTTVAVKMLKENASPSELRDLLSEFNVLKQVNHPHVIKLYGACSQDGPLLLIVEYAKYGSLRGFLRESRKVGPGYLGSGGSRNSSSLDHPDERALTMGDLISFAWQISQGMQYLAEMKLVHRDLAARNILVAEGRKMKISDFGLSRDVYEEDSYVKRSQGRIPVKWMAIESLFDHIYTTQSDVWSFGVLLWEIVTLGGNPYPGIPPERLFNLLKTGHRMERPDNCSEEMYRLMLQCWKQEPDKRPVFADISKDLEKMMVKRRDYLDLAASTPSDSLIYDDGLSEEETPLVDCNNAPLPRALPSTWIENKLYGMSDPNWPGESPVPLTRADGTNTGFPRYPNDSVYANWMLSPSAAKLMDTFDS
Angiopoietin-1 receptor (Homo sapiens), sequence (Q02763 whole entry): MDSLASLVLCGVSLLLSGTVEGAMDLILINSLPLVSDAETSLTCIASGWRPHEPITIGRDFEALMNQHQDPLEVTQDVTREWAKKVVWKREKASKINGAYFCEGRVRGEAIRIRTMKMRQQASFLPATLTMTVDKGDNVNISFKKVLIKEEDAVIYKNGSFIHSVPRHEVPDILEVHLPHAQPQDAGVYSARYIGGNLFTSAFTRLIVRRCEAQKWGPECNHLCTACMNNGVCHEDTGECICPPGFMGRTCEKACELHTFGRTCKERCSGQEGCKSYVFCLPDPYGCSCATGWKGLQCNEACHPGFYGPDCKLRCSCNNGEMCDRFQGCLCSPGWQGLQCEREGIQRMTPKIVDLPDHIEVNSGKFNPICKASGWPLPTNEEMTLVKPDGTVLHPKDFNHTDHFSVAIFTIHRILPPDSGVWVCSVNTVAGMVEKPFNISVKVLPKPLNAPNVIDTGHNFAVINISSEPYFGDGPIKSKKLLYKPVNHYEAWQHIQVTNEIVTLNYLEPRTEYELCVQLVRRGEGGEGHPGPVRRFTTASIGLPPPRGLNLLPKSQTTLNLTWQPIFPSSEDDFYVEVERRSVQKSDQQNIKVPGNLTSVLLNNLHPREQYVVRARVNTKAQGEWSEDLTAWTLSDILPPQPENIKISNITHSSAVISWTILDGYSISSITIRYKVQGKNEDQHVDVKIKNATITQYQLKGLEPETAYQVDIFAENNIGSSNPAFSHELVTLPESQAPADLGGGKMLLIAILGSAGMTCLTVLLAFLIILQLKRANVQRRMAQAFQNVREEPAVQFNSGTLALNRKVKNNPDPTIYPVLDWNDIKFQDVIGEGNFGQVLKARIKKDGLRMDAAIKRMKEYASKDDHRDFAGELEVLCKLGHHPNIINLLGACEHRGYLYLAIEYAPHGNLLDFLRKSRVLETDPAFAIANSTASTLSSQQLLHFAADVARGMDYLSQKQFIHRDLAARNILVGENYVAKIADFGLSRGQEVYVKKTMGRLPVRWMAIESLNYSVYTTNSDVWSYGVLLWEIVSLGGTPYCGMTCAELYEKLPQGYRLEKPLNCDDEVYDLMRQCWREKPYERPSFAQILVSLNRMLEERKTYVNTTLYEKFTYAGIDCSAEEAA

## CN1CCN(C(=O)C(C)(C)c2ccc(C(=O)Nc3cn4cc(-c5cc(C(C)(C)C)cc(C(C)(C)C)c5)ccc4n3)cc2)CC1 [T3-CLK-N]
D(3) dopamine receptor; read-out: Ki
  Ki: 2.25 µM
D(3) dopamine receptor; read-out: pKi (converted)
  Ki: 1.91 µM
[1]
  Ki: 1.45 µM
[2]
  inhibition: 78.1%

## CN1CCN(C(=O)C(C)(C)c2ccc(C(=O)Nc3cn4cc(-c5ccncc5)ccc4n3)cc2)CC1 [T3-CLK]
[3]; Compound concentration 0.1 uM
  inhibition: 10.1%
[3]; Compound concentration 1.0 uM
  inhibition: 55.7%
[4]; Compound concentration 0.123 uM
  inhibition: -8.38%
[4]; Compound concentration 1.11 uM
  inhibition: -2.87%
[5]
  inhibition: 10.9%
[6]; Compound concentration 0.1 uM
  inhibition: -3.21%
[6]; Compound concentration 1.0 uM
  inhibition: -3.11%
[7]; Compound concentration 0.1 uM
  inhibition: -3.75%
[7]; Compound concentration 1.0 uM
  inhibition: -2.73%
[8]; Compound concentration 0.1 uM
  inhibition: 5.45%
[8]; Compound concentration 1.0 uM
  inhibition: 2.56%
[9]; Compound concentration 0.1 uM
  inhibition: -5.58%
[9]; Compound concentration 1.0 uM
  inhibition: -8.53%
[10]; Compound concentration 0.1 uM
  inhibition: 4.38%
[10]; Compound concentration 1.0 uM
  inhibition: 3.75%
[11]; Compound concentration 0.1 uM
  inhibition: -1.05%
[11]; Compound concentration 1.0 uM
  inhibition: -2.43%
[12]; Compound concentration 0.1 uM
  inhibition: 12.4%
[12]; Compound concentration 1.0 uM
  inhibition: 10.9%
[13]; Compound concentration 0.1 uM
  inhibition: 2.21%
[13]; Compound concentration 1.0 uM
  inhibition: 0.698%
[14]; Compound concentration 0.1 uM
  inhibition: 0.108%
[14]; Compound concentration 1.0 uM
  inhibition: -0.329%
[15]; Compound concentration 0.1 uM
  inhibition: 9.74%
[15]; Compound concentration 1.0 uM
  inhibition: 18.4%
[16]; Compound concentration 0.1 uM
  inhibition: -5.79%
[16]; Compound concentration 1.0 uM
  inhibition: -4.96%
